Data reported in patent US20210290576A1, “STRUCTURALLY MODIFIED FATTY ACIDS FOR IMPROVING GLYCEMIC CONTROL AND TREATING INFLAMMATORY BOWEL DISEASE” (NORTHSEA THERAPEUTICS B.V., priority 2018, published 2021).
Like-named read-outs stand apart in the source and are kept apart here.

Assays:
[1] = system: atherogenic lipids; settings: humans; cited from earlier work
[2] = system: atherogenic lipids; settings: APOE*3.CETP mice; cited from earlier work
[3] = system: ob/ob mice, T2DM rodent model; test: Glucose tolerance after 21-day treatment in high-fat diet fed ob/ob mice; format: in vivo; settings: 112 mg/kg once daily via diet, 21 days
Method: This study was carried out to assess the effects of chronic treatment with Compound B or Compound A on glucose tolerance in a T2DM rodent model.
For assessing the effects of Compound A, ob/ob mice were fed a high-fat diet (comprising 2% cholesterol, 40% fat (containing 18% trans-fatty acids), 20% fructose) for 15 weeks starting at age 5 weeks. […] After 21 days the mice received a 2 g/kg oral glucose load. After the oral glucose load, plasma glucose was measured at multiple time points from 0-240 minutes.

[4] = system: active GLP-1; test: Active GLP-1 during an oral glucose tolerance test (OGTT) and at 24 h in lean male SPD rats; format: in vivo, Sprague-Dawley (SPD) rats
Method: (§1) Evaluation of the Acute Effects of Compound a and Compound B Upon Active GLP-1 wconcentrations during an oral glucose tolerance test (OGTT) and at 24 h in lean male SPD Rats
(§2) To establish the acute effects of oral administration of Compound A and Compound B upon active GLP-1 and insulin concentrations, lean (about 300 g) male Sprague-Dawley (SPD) rats were divided into groups (n=6-8) and fed 74 and 84 mg/kg body weight of Compound A or Compound B respectively, either with or without concurrent administration of a dipeptidyl peptidase 4 (DPP-4) inhibitor 60 minutes prior to an oral glucose tolerance test (OGTT) as outlined below. Parallel groups receiving either corn oil alone (corn oil+vehicle, n=10) or corn oil and a DPP-4 inhibitor (“DPP-4 i”) (corn oil+(DPP-4 i), n=10) were included as controls. The DPP-4 inhibitor was linagliptin.
(§3) A second oral dose of 74 and 84 mg/kg bodyweight of Compound A or Compound B respectively was administered at 240 minutes and ad lib feeding was initiated. A second dose of DPP-4 inhibitor was administered at 480 mins prior to lights out. Blood samples were collected at 24 h for measurement of active GLP-1 and insulin. All values are mean, figures depict mean values (SEM).

[5] = system: ob/ob mice, rodent model of T2DM; test: Oral glucose (2 g/kg) tolerance test after 5 weeks of treatment in ob/ob mice; format: in vivo; settings: 15, 45 and 135 mg/kg bw/d
Method: Mice were fed a standard low-fat (7% w/w fat) diet. After 4-weeks, the mice were fasted for 4 hours and the effects of Compound A were assessed. Assessment of the effects of Compound A included basal levels of blood glucose, plasma insulin, HbA1c levels, and homeostatic model assessment of insulin resistance (HOMA-IR). HOMA-IR is an assessment of insulin resistance and is calculated by the following formula: fasting insulin (micro U/L)×fasting glucose […]/22.5.
After 5 weeks, an oral glucose (2 g/kg) tolerance test was performed after a 4 hour fast.

[6] = system: plasma insulin; test: Plasma insulin at 24 h after OGTT in lean male SPD rats; format: in vivo, Sprague-Dawley (SPD) rats; settings: non-significant
Method: as §1, §2, §3

| SMILES | atherogenic lipids [1] | atherogenic lipids [2] | glucose tolerance compared to vehicle ([3]; 2 g/kg oral glucose load) | AUC glucose ([3]; p<0.01) | active GLP-1 concentrations at 24 h versus corn oil+vehicle ([4]; in combination with DPP4 inhibitor (linagliptin), Compound A 74 mg/kg, Compound B 84 mg/kg, two oral doses) | glucose levels in oral glucose tolerance test [5] | increase of plasma insulin concentrations at 24 h versus corn oil+vehicle and corn oil+DPP4 inhibitor ([6]; compound alone) [%] | increase of plasma insulin concentrations at 24 h versus corn oil+vehicle and corn oil+DPP4 inhibitor ([6]; in combination with DPP4 inhibitor (linagliptin)) [%] | active GLP-1 (AUC 0-60 mins) versus corn oil alone ([4]; corn oil+DPP4 inhibitor alone) | active GLP-1 concentrations at 24 h versus corn oil alone ([4]; corn oil+DPP4 inhibitor alone) |
| --- | --- | --- | --- | --- | --- | --- | --- | --- | --- | --- |
| CC/C=C\C/C=C\C/C=C\C/C=C\C/C=C\CCCCOC(CC)C(=O)O (stereo not shown) [Compound A, 2-(((5Z,8Z,11Z,14Z,17Z)-icosa-5,8,11,14,17-pentaen-1-yl)oxy)butanoic acid] | significantly reduce atherogenic lipids | significantly reduce atherogenic lipids | significantly improved glucose tolerance from 15 minutes through 90 minutes | significantly reduced | significantly (p<0.05) increased | dose-dependent response in lowering glucose levels | 25 | 25 |  |  |
| CC#CCn1c(N2CCC[C@@H](N)C2)nc2c1c(=O)n(Cc1nc(C)c3ccccc3n1)c(=O)n2C [DPP4 inhibitor, linagliptin, reference compound] |  |  |  |  |  |  |  |  | no significant effect | no significant effect |
